# Measurements: article PMC10507085, “Pharmacological inhibition of TBK1/IKKε blunts immunopathology in a murine model of SARS-CoV-2 infection” (Nature Communications, 2023)
# Columns and labels:
# Test in all cases: biochemical
# Design in all cases: KINOMEscan competition binding, DNA-tagged kinase against immobilised ligand, qPCR read-out
# ADRBK2 = biological target: T1, ADRBK2 (Homo sapiens, UniProt P35626); settings: read-out: Percent Control
# T1 construct: gene GRK3
# AXL = AXL (Homo sapiens, UniProt P30530); settings: read-out: Percent Control
# CDK15 = CDK15 (Homo sapiens, UniProt Q96Q40); settings: read-out: Percent Control
# CDK17 = CDK17 (Homo sapiens, UniProt Q00537); settings: read-out: Percent Control
# CIT = CIT (Homo sapiens, UniProt O14578); settings: read-out: Percent Control
# ITK = ITK (Homo sapiens, UniProt Q08881); settings: read-out: Percent Control
# MAP3K12 = MAP3K12 (Homo sapiens, UniProt Q12852); settings: read-out: Percent Control
# MAPK7 = MAPK7 (Homo sapiens, UniProt Q13164); settings: read-out: Percent Control
# MAPKAPK5 = MAPKAPK5 (Homo sapiens, UniProt Q8IW41); settings: read-out: Percent Control
# MARK2 = MARK2 (Homo sapiens, UniProt Q7KZI7); settings: read-out: Percent Control
# MINK1 = MINK1 (Homo sapiens, UniProt Q8N4C8); settings: read-out: Percent Control
# MST4 = biological target: T2, MST4 (Homo sapiens, UniProt Q9P289); settings: read-out: Percent Control
# T2 construct: gene STK26
# NUAK1 = NUAK1 (Homo sapiens, UniProt O60285); settings: read-out: Percent Control
# RIPK2 = RIPK2 (Homo sapiens, UniProt O43353); settings: read-out: Percent Control
# SBK1 = SBK1 (Homo sapiens, UniProt Q52WX2); settings: read-out: Percent Control
# SIK2 = SIK2 (Homo sapiens, UniProt Q9H0K1); settings: read-out: Percent Control
# STK16 = STK16 (Homo sapiens, UniProt O75716); settings: read-out: Percent Control
# TAOK1 = TAOK1 (Homo sapiens, UniProt Q7L7X3)
# In short: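 KINOMEscan active-site competition; DNA-tagged kinase vs immobilised ligand; bound kinase by RT-qPCR. 11-pt 3-fold serial dilution, 100× stocks in 100% DMSO, 1× in assay.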
# TNK2 = TNK2 (Homo sapiens, UniProt Q07912); settings: read-out: Percent Control
# ZAK = biological target: T3, ZAK (Homo sapiens, UniProt Q9NYL2); settings: read-out: Percent Control
# T3 construct: gene MAP3K20
# Chain of TAOK1 (Q7L7X3 whole entry): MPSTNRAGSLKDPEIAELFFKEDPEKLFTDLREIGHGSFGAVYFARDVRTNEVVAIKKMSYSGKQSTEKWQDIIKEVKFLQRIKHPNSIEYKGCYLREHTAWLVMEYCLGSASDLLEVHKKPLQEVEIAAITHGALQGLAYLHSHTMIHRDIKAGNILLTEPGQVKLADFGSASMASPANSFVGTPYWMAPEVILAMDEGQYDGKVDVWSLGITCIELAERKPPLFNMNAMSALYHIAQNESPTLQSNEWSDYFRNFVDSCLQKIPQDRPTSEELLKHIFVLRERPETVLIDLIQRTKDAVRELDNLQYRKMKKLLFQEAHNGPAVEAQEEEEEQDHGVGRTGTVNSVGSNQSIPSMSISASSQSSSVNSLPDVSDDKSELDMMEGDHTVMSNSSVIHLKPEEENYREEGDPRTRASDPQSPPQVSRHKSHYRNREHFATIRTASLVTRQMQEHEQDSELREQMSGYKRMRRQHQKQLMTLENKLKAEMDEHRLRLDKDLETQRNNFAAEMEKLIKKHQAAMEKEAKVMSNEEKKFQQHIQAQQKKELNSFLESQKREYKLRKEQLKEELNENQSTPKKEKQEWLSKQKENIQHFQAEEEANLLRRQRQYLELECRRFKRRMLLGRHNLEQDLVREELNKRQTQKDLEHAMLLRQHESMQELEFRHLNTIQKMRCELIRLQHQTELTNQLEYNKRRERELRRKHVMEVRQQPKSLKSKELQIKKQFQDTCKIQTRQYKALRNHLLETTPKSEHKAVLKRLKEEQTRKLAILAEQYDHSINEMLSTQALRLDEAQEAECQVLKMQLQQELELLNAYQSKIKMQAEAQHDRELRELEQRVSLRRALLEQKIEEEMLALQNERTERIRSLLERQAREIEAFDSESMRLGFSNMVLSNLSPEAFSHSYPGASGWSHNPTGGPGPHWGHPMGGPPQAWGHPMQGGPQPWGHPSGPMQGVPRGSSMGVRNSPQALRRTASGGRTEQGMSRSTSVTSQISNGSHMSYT
# Chain of AXL (P30530 whole entry): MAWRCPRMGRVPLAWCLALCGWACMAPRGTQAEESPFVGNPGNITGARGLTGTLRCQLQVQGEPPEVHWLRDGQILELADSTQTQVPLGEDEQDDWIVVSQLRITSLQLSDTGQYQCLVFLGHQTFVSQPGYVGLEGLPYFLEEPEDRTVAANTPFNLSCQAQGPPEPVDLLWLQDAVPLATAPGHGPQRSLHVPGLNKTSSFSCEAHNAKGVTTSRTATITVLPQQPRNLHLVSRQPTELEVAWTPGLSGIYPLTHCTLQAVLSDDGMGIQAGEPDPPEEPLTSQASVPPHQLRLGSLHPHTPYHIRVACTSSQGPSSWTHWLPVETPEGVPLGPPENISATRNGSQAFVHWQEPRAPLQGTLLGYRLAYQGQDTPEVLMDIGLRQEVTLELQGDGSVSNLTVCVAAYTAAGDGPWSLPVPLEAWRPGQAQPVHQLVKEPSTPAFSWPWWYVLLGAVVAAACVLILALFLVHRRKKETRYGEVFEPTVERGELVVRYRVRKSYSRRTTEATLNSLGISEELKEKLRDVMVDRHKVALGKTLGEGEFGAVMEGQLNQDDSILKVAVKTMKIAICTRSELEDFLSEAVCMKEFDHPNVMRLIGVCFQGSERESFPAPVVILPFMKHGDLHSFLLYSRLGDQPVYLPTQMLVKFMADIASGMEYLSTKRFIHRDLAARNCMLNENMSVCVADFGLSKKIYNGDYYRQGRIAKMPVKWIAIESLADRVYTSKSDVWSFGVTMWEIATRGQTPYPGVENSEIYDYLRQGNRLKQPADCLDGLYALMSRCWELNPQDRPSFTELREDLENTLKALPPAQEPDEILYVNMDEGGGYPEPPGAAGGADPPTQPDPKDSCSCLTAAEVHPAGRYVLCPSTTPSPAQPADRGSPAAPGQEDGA
# T2 sequence (Q9P289 whole entry): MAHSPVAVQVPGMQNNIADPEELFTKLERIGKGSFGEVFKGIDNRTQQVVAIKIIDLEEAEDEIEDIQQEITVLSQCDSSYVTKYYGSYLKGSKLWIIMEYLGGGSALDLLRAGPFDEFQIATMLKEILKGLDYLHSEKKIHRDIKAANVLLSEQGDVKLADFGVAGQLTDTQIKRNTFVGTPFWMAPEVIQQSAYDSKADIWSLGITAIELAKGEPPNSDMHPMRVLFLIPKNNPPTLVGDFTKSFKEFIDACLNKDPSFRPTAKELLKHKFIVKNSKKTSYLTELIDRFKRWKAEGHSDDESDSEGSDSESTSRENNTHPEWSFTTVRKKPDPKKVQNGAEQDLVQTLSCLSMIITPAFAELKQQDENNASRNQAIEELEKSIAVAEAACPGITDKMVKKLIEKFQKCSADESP
# Chain of CIT (O14578 whole entry): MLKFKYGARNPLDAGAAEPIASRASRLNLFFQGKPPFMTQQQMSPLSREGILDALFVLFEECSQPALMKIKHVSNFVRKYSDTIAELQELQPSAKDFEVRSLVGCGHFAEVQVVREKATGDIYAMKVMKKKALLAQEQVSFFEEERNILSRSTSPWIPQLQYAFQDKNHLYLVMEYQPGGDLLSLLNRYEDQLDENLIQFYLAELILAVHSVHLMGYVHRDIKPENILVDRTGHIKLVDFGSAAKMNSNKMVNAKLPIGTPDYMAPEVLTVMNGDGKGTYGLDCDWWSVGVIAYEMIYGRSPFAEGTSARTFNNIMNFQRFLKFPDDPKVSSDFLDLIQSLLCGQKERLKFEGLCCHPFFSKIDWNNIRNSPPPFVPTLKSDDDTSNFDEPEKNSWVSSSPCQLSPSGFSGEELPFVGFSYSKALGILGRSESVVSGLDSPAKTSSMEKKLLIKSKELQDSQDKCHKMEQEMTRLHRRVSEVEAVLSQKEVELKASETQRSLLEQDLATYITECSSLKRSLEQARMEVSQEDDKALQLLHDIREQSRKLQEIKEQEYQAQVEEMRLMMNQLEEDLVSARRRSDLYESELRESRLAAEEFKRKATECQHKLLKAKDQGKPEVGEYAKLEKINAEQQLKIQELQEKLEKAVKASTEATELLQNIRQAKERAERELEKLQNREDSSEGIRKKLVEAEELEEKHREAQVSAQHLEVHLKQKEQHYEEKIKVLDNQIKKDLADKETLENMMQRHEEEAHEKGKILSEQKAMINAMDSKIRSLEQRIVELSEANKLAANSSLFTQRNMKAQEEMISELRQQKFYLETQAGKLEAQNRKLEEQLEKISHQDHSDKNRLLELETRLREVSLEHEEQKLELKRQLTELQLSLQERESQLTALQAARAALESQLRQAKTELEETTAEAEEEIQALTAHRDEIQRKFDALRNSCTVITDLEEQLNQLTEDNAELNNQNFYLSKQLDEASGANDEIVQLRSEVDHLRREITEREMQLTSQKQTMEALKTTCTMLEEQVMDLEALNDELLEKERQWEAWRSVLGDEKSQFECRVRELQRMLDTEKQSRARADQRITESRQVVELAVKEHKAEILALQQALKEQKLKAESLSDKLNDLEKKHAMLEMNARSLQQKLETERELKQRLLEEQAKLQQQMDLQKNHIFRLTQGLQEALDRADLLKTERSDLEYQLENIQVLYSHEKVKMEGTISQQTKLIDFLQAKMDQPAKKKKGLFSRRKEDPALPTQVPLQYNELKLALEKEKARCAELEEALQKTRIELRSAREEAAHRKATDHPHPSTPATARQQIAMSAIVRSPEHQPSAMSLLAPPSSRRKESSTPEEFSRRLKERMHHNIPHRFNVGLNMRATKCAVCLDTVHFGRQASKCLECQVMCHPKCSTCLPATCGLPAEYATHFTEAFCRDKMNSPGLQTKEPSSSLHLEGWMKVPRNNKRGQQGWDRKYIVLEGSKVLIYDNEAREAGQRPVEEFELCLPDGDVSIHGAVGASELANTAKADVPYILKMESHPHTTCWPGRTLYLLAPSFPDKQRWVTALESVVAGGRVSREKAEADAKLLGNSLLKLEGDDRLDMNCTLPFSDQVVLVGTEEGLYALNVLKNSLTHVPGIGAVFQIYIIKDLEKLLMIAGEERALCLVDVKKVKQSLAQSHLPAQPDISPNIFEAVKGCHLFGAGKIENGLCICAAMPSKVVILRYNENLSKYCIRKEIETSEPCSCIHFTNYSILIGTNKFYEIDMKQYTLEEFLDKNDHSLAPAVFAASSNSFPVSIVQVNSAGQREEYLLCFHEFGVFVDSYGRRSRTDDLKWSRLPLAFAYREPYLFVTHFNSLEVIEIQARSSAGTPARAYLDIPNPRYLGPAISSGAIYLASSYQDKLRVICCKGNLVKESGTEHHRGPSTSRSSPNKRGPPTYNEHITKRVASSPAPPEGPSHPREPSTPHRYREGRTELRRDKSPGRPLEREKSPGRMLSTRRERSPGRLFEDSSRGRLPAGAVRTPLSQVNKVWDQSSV
# Chain of ITK (Q08881 whole entry): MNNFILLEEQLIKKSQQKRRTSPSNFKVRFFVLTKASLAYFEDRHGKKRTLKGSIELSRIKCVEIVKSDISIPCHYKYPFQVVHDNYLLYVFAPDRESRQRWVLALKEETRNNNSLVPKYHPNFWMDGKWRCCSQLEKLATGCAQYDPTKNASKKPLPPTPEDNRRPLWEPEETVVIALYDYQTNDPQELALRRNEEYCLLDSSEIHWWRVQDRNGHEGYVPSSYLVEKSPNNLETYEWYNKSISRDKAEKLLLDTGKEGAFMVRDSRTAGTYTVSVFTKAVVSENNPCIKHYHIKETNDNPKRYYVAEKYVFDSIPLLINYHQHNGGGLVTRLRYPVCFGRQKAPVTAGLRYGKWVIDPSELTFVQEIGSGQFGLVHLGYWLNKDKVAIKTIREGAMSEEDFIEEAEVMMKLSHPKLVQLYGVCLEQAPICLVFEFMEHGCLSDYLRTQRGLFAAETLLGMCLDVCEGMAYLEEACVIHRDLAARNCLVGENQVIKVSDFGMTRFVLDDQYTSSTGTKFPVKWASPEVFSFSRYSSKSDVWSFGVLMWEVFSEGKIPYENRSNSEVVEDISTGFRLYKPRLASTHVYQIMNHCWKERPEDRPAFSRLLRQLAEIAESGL
structure (smiles),measurement,setting,value
"Oc1ccc(C2=Cc3ccc(O)cc3OC2)cc1 [compound 1, idronoxil]",remaining binding at 10 µM,ADRBK2,85%
same,remaining binding at 10 µM,AXL,95%
same,remaining binding at 10 µM,CDK15,99%
same,remaining binding at 10 µM,CDK17,97%
same,remaining binding at 10 µM,CIT,62%
same,remaining binding at 10 µM,ITK,97%
same,remaining binding at 10 µM,MAP3K12,75%
same,remaining binding at 10 µM,MAPK7,90%
same,remaining binding at 10 µM,MAPKAPK5,75%
same,remaining binding at 10 µM,MARK2,84%
same,remaining binding at 10 µM,MINK1,38%
same,remaining binding at 10 µM,MST4,90%
same,remaining binding at 10 µM,NUAK1,97%
same,remaining binding at 10 µM,RIPK2,81%
same,remaining binding at 10 µM,SBK1,91%
same,remaining binding at 10 µM,SIK2,87%
same,remaining binding at 10 µM,STK16,100%
same,Kd,TAOK1,4.7 µM
same,remaining binding at 10 µM,TAOK1; read-out: Percent Control,16%
same,remaining binding at 10 µM,TNK2,91%
same,remaining binding at 10 µM,ZAK,54%
